From US7772246B2 (Pfizer Inc., priority 2007, dated 2010)

Molecular target: T1, b-Raf (Homo sapiens, UniProt P15056, V600E)
T1 construct: endogenous in cells; host or cells: A2058 human melanoma cells
Experiment: Raf cellular assay (phospho-Mek1/2 ELISA in A2058 cells)
Type: cell-based
Conditions: Table 3; human melanoma A2058 cells (b-Raf mutation), Mek1/2 Ser217/221 phosphorylation, 1 hour incubation; read-out: pMEK IC50
Experimental: Compounds of the present invention were evaluated for potency against b-Raf using a cellular assay as follows. The activity of Raf kinases in cells is determined by measuring the level of phosphorylation of Mek1/2 at serine 217/221, the site phosphorylated by Raf kinases in vivo. Mek1/2 Ser phosphorylation is measured using anti-phospho-Mek1/2 antibodies (Cell Signaling #9121) in an ELISA format.
Healthy growing human melanoma A2058 cells (harboring a b-Raf mutation) are used for the assay. A2058 cells are grown in 10% FBS DMEM medium. When the cells are near 85%+confluence, the cells are rinsed with PBS once and trypsinized with trypsin/EDTA for 3 minutes. The cells are resuspended in 10% FBS DMEM and are centrifuged down at 1000 rpm for 5 minutes. The cells are resuspended in 10% FBS DMEM and counted on a cell counter. The cells are seeded at 50,000 cells/well in a volume of 100 μL/well in 10% FBS DMEM in a 96 well flat-bottom plate. The negative control wells receive only 100 μL of 10% FBS DMEM medium without cells. The plate is incubated overnight in a cell culture incubator with 5% CO2 at 37° C.
On day 2, testing compounds are prepared in 10% FBS DMEM medium and serially diluted at 1:3 for 11 test concentrations. Each concentration of the compounds is tested in duplicate. The compound solutions are added at 25 μL/well to the corresponding wells in the cell plate, and 25 μL/well of the vehicle (0.5% DMSO in 10% FBS DMEM) is added to the negative control wells (no cells) and the positive control wells (cells without compounds). The plate is incubated for 1 hour in a cell culture incubator with 5% CO2 at 37° C. After 1 hour of incubation, the medium is removed, 100 μL/well of cell lysis buffer is added into the cell plate, and the plate is shaken for 15 minutes at room temperature. After 15 minutes, the cell lysates are transferred to an ELISA plate (pre-coated with anti-Mek1 anti-body, Cell Signaling #2352), and the plate is incubated with gentle shaking for 2 hours at room temperature. After 2 hours, the contents of the wells are aspirated and the wells are washed 4 times with wash buffer. 100 μL of phospho-Mek1/2 detection antibody (Cell Signaling #9121) is added into each well and the plate is incubated with gentle shaking for 1 hour at room temperature. After 1 hour, the wells are aspirated and washed 4 times with wash buffer. 100 μL of anti-rabbit IgG HRP-linked antibody (Cell Signaling #7074) is added to each well, and the plate is incubated with gentle shaking for 1 hour at room temperature. After 1 hour, the contents of the wells are aspirated and the wells are washed 4 times with wash buffer. 100 μL of TMB substrate solution (Sigma #T0440) is added into each well, and the plate is incubated with gentle shaking at room temperature for 10 to 20 minutes. After color development, 100 μL of stop solution (1N hydrochloric acid) is added to each well to terminate color development. The plate is read at 450 nm on an ELISA plate reader.

T1 sequence (P15056 whole entry V600E): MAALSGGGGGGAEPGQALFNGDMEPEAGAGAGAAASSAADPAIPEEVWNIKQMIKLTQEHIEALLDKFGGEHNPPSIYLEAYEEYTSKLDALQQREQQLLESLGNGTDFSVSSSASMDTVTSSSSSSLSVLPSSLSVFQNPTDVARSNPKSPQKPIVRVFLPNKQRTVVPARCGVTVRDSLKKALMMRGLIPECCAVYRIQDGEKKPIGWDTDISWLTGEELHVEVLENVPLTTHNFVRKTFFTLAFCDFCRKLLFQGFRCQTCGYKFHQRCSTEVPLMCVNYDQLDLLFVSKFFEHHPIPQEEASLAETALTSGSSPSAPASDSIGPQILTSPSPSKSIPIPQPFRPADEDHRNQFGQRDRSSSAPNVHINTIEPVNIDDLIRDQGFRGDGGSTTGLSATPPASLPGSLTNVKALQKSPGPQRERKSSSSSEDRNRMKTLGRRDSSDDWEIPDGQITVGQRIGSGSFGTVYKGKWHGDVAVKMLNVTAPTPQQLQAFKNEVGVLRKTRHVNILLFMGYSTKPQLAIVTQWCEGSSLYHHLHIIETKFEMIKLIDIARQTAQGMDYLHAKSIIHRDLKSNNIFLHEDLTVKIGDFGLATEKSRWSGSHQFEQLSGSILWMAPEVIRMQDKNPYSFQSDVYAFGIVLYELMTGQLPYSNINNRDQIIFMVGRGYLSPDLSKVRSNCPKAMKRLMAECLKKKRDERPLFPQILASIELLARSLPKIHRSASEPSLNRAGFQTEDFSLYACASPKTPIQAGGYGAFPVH

Structure (SMILES) | IC50 [nM]
COc1cc(-c2nn(-c3ccc(C#N)cc3)cc2-c2ccnc(NCCO)n2)cnc1N [Example B-80, 4-[3-(6-amino-5-methoxypyridin-3-yl)-4-{2-[(2-hydroxyethyl)-amino]pyrimidin-4-yl}-1H-pyrazol-1-yl]-benzonitrile] | 95.3
Cc1ccc(-c2nn(CC(F)F)cc2-c2ccnc(NCCC#N)n2)cn1 [Example B-28, 3-({4-[1-(2,2-difluoroethyl)-3-(6-methylpyridin-3-yl)-1H-pyrazol-4-yl]pyrimidin-2-yl}amino)propanenitrile] | 538
C[C@H](O)CNc1nccc(-c2cn(CC(F)F)nc2-c2cnc3c(c2)CCN3)n1 [Example B-102, (2S)-1-({4-[1-(2,2-difluoroethyl)-3-(2,3-dihydro-1H-pyrrolo[2,3-b]pyridin-5-yl)-1H-pyrazol-4-yl]pyrimidin-2-yl}amino)propan-2-ol] | 509
COc1cc(-c2nn(C3CCOCC3)cc2-c2ccnc(NCCC#N)n2)cnc1N [Example B-69, 3-({4-[3-(6-amino-5-methoxypyridin-3-yl)-1-(tetrahydro-2H-pyran-4-yl)-1H-pyrazol-4-yl]pyrimidin-2-yl}amino)propanenitrile] | 2.98
COCCCn1cc(-c2ccnc(NC[C@H](C)O)n2)c(-c2cnc3[nH]cc(Cl)c3c2)n1 [Example B-110, (2S)-1-({4-[3-(3-chloro-1H-pyrrolo[2,3-b]pyridin-5-yl)-1-(3-methoxypropyl)-1H-pyrazol-4-yl]pyrimidin-2-yl}amino)propan-2-ol] | 144
COc1cc(-c2nn(C(C)(C)C)cc2-c2ccnc(NCC(F)F)n2)cnc1N [Example B-54, 4-[3-(6-amino-5-methoxypyridin-3-yl)-1-tert-butyl-1H-pyrazol-4-yl]-N-(2,2-difluoroethyl)pyrimidin-2-amine] | 1.24
Cc1c[nH]c2ncc(-c3nn(CC(F)F)cc3-c3ccnc(N)n3)cc12 [Example B-108, 4-[1-(2,2-difluoroethyl)-3-(3-methyl-1H-pyrrolo[2,3-b]pyridin-5-yl)-1H-pyrazol-4-yl]pyrimidin-2-amine] | 11.2
CC(C)n1cc(-c2ccnc(NC[C@H](C)O)n2)c(-c2cnc(N)c(OC(F)F)c2)n1 [Example B-39, (2S)-1-[(4-{3-[6-amino-5-(difluoromethoxy)-pyridin-3-yl]-1-isopropyl-1H-pyrazol-4-yl}pyrimidin-2-yl)amino]propan-2-ol] | 87.8
Cc1cc(-c2nn(CC(F)F)cc2-c2ccnc(NC[C@H](C)O)n2)cnc1N [Example B-18, (2S)-1-({4-[3-(6-amino-5-methylpyridin-3-yl)-1-(2,2-difluoroethyl)-1H-pyrazol-4-yl]pyrimidin-2-yl}amino)propan-2-ol] | 580
C[C@H](O)CNc1nccc(-c2cn(CC(F)F)nc2-c2cnc3c(c2)[C@@H](C)CN3)n1 [Example B-92, (S)-1-(4-(1-(2,2-difluoroethyl)-3-((R)-3-methyl-2,3-dihydro-1H-pyrrolo[2,3-b]pyridin-5-yl)-1H-pyrazol-4-yl)pyrimidin-2-ylamino)propan-2-ol] | 280
CC(C)n1cc(-c2ccnc(NCCC#N)n2)c(-c2cnc3[nH]ccc3c2)n1 [Example B-50, 3-({4-[1-isopropyl-3-(1H-pyrrolo[2,3-b]pyridin-5-yl)-1H-pyrazol-4-yl]pyrimidin-2-yl}amino)-propanenitrile] | 7.29
C[C@H](O)CNc1nccc(-c2cn(CC(F)F)nc2-c2cnc3[nH]cc(C#N)c3c2)n1 [Example B-103, 5-[1-(2,2-difluoroethyl)-4-(2-{[(2S)-2-hydroxypropyl]amino}pyrimidin-4-yl)-1H-pyrazol-3-yl]-1H-pyrrolo[2,3-b]pyridine-3-carbonitrile] | 3800
C[C@H](O)CNc1nccc(-c2cn(CC(F)F)nc2-c2cnc3[nH]cc(F)c3c2)n1 [Example B-101, (2S)-1-({4-[1-(2,2-difluoroethyl)-3-(3-fluoro-1H-pyrrolo[2,3-b]pyridin-5-yl)-1H-pyrazol-4-yl]pyrimidin-2-yl}amino)propan-2-ol] | 107
Cc1c[nH]c2ncc(-c3nn(C4CCN(C)CC4)cc3-c3ccnc(NCC(F)F)n3)cc12 [Example B-113, N-(2,2-difluoroethyl)-4-[1-(1-methylpiperidin-4-yl)-3-(3-methyl-1H-pyrrolo[2,3-b]pyridin-5-yl)-1H-pyrazol-4-yl]pyrimidin-2-amine] | 1.48
CC1CNc2ncc(-c3nn(CC(F)F)cc3-c3ccnc(NC[C@H](C)O)n3)cc21 (stereo partly drawn) [Example B-87, (2S)-1-(4-(1-(2,2-difluoroethyl)-3-(3-methyl-2,3-dihydro-1H-pyrrolo[2,3-b]pyridin-5-yl)-1H-pyrazol-4-yl)pyrimidin-2-ylamino)propan-2-ol] | 510
CN1CCC(n2cc(-c3ccnc(NCC(F)F)n3)c(-c3cnc4[nH]cc(Cl)c4c3)n2)CC1 [Example B-114, 4-[3-(3-chloro-1H-pyrrolo[2,3-b]pyridin-5-yl)-1-(1-methylpiperidin-4-yl)-1H-pyrazol-4-yl]-N-(2,2-difluoroethyl)pyrimidin-2-amine] | 2.22
Cc1c[nH]c2ncc(-c3nn(C(F)F)cc3-c3ccnc(NCCC#N)n3)cc12 [Example B-44, 3-({4-[1-(difluoromethyl)-3-(3-methyl-1H-pyrrolo[2,3-b]pyridin-5-yl)-1H-pyrazol-4-yl]pyrimidin-2-yl}amino)-propanenitrile] | 1.37
CC(C)(CO)n1cc(-c2ccnc(NCC(F)F)n2)c(-c2cnc3[nH]ccc3c2)n1 [Example B-48, 2-[4-{2-[(2,2-difluoroethyl)amino]pyrimidin-4-yl}-3-(1H-pyrrolo[2,3-b]pyridin-5-yl)-1H-pyrazol-1-yl]-2-methylpropan-1-ol] | 30.3
C[C@H](O)CNc1nccc(-c2cn([C@H]3C[C@@H](F)C3)nc2-c2cnc3[nH]cc(Cl)c3c2)n1 [Example B-84, (S)-1-(4-(3-(3-chloro-1H-pyrrolo[2,3-b]pyridin-5-yl)-1-((1s,3s)-3-fluorocyclobutyl)-1H-pyrazol-4-yl)pyrimidin-2-ylamino)propan-2-ol] | 18.7

The remaining lines, values ahead:

IC50 [nM] | Structure (SMILES)
2790 | COc1nc(-c2nn(CC(F)F)cc2-c2ccnc(NC[C@H](C)O)n2)cnc1N [Example I-1, (2S)-1-({4-[3-(5-amino-6-methoxypyrazin-2-yl)-1-(2,2-difluoroethyl)-1H-pyrazol-4-yl]pyrimidin-2-yl}amino)propan-2-ol]
8.98 | CC(C)(CO)n1cc(-c2ccnc(N)n2)c(-c2cnc3[nH]cc(Cl)c3c2)n1 [Example E-6, 2-[4-(2-amino-pyrimidin-4-yl)-3-(3-chloro-1H-pyrrolo[2,3-b]pyridin-5-yl)-1H-pyrazol-1-yl]-2-methylpropan-1-ol]
19.9 | CC(C)(C#N)n1cc(-c2ccnc(NCCO)n2)c(-c2cnc3[nH]cc(Cl)c3c2)n1 [Example G-5, 2-[3-(3-chloro-1H-pyrollo[2,3-b]pyridin-5-yl)-4-{2-[(2-hydroxyethyl)amino]pyrimidin-4-yl}-1H-pyrazol-1-yl]-2-methylpropanenitrile]
49.9 | CC(C)n1cc(-c2ccncn2)c(-c2cnc3[nH]cc(Cl)c3c2)n1 [Example F-1, 3-chloro-5-(1-isopropyl-4-(pyrimidin-4-yl)-1H-pyrazol-3-yl)-1H-pyrrolo[2,3-b]pyridine]
20 | CC(C)n1cc(-c2ccnc(NC[C@H](C)O)n2)c(-c2cnc3[nH]cc(Cl)c3n2)n1 [Example I-2, (2S)-1-({4-[3-(7-chloro-5H-pyrrolo[2,3-b]pyrazin-2-yl)-1-isopropyl-1H-pyrazol-4-yl]pyrimidin-2-yl}amino)propan-2-ol]
17.3 | CC(C)(C#N)n1cc(-c2ccnc(N)n2)c(-c2cnc3[nH]cc(Cl)c3c2)n1 [Example G-6, 2-[4-(2-aminopyrimidin-4-yl)-3-(3-chloro-1H-pyrrolo[2,3-b]pyridin-5-yl)-1H-pyrazol-1-yl]-2-methylpropanenitrile]
196 | CN1CCC(n2cc(-c3ccncn3)c(-c3cnc4[nH]cc(Cl)c4c3)n2)CC1 [Example F-2, 3-chloro-5-[1-(1-methylpiperidin-4-yl)-4-pyrimidin-4-yl-1H-pyrazol-3-yl]-1H-pyrrolo[2,3-b]pyridine]
